From article PMC12217462 (Antimicrobial Agents and Chemotherapy, 2025)
Where “and” joins values, the source holds several entries; their conditions need not be identical. Equal entries are not always repeated. Where two headings read alike, the source gives them in different places.

Assays:
Babesia duncani [1] = conditions: cited from earlier work
Babesia duncani [2] = assay: Bug Box single-concentration screen, PI assay in 384-well plates; assay type: cell-based; conditions: read-out: Inhibition in Bug Box screen (hit definition)
Procedure: (§1) Prior to the removal of the culture(s) from the modular incubator, fresh A + blood was washed three times with PSG +and compounds (in DMSO stocks) to be tested were prepared in a 96-well plate by serial dilution in cDMEM. Once prepared, the culture(s) were removed from the modular incubator, collected, and washed once with 7 mL of cDMEM. A 10% hematocrit, 5% parasitemia stock in cDMEM was made, and 25 µL aliquoted into a 384-well plate with constant agitation, followed by 25 µL of compound dilution (quadruplicates). The positive growth control was given 25 µL of 0.5% dimethyl sulfoxide (DMSO) in cDMEM (final 0.25% DMSO), and the negative growth control was 25 µL of 50 µM WR99210 (0.5% DMSO) (final 25 µM WR99210, 0.25% DMSO). Plates were incubated as previously described, smears of the positive growth control were made, and the plates were read as previously described. Smears were stained by Giemsa, and a minimum of 1,000 RBCs were counted to determine parasitemia. Dose-response assays were repeated twice.
The Bug Box is a collection of 40 compounds with known antimicrobial and/or bioactivity, which was provided by the Structural Genomics Consortium (SGC)-Toronto. The full list of compounds is available in the supplement. They were obtained in 10 mM aliquots and screened in 384-well plates at 1 µM and 5 µM dilutions with four technical replicates per dilution. Hits were defined as those compounds with at least 80% inhibition. Hits were validated by dose-response curves using commercially obtained compounds with verified purity. The only exception to this was in the verification of compound M7, which is a proprietary compound that could be obtained only from SGC-Toronto. Dose-response curves were created from two independent experiments, each with nine dilutions of the drug.

Babesia duncani [3] = assay: Propidium iodide-based in vitro dose-response assay, B. duncani-infected red blood cells, 384-well plates; assay type: cell-based; conditions: for EC90: read-out: EC90 (95% CI)
Procedure: Frozen stocks of B. duncani were provided by the Ben Mamoun lab at Yale University. Culture maintenance was undertaken as described by Singh et al^18 with the following adaptations: Media, completed DMEM/F12 (cDMEM; 20% heat-inactivated fetal bovine serum (Sigma-Aldrich catalogue #12,306 C-500ML), 1 x HT media supplement (Sigma-Aldrich catalogue # H0137-10VL), 1 x L-glutamine (Gibco, catalogue # 25030–081), 1 x antibiotic-antimycotic (Gibco catalogue #15240–062), and 1 x gentamicin (Gibco catalogue #15710–072)), was changed every other day and cultures were kept in a modular incubator gassed with 2% O2, 5% CO2, 93% N2 at 37°C. Passage occurred once a week into fresh blood at 1%–2% parasitemia, 5% hematocrit, and fresh A + blood was obtained once a week from the University of Vermont Medical Center Blood Bank. Four days before the start of drug assay testing, a 10 mL, 5% hematocrit culture was infected to 2% parasitemia with Babesia duncani. One day before the start, the media was changed, and parasitemia was assessed by light microscopy examination of Giemsa-stained thin blood smears with a minimum of 500 red blood cells counted.
Fresh A + blood was washed three times, and a stock 10% hematocrit (HCT) solution of uninfected red cells in completed F12/DMEM media (cDMEM) was created. In a 96-well plate, a pellet from a vigorously growing (≥20% parasitemia) culture was used to create a 10% hematocrit starting well that was then serially diluted five times with the stock 10% hematocrit solution. 25 µL of each serial dilution was transferred to a white, clear-bottom 384-well plate (Falcon, catalog #353963) in triplicate before 25 µL of cDMEM was added to each well, followed by 25 µL of 0.6% Triton-X, 22.5 µM PI in phosphate-buffered solution. The 384-well plate was then shaken for 30 seconds, incubated at 37°C for 1 hour (in the dark), then moved to room temperature in the dark. After 24 hours, the plate was read using a Synergy H1 (BioTek, Winooski, VT) with excitation = 535 nm, emission = 615 nm, sensitivity = 150, and readings taken from the bottom of the wells. Blood smears were made from select undiluted starting wells and stained with Giemsa, and parasitemia was calculated manually from a minimum of 1,000 counted red blood cells. The experiment was repeated twice.
as §1
Pilot dose-response experiments were performed using WR99210 (a DHFR inhibitor with known effect on Babesia duncani), DMSO vehicle, and standard of care drugs atovaquone, clindamycin, quinine, and azithromycin ([20]).
The positive growth control was treated with 25 µL of 0.5% dimethyl sulfoxide (DMSO) in cDMEM (final 0.25% DMSO), and the negative growth control with 25 µL of 50 µM WR99210 (0.5% DMSO) (final 25 µM WR99210, 0.25% DMSO). The plate was incubated for 48 hours and then the plate was stained and read as previously described.

HCT8 cells = assay: Cytotoxicity on confluent monolayer HCT8 cells (Promega CellTiter Aqueous One MTS assay); assay type: cell-based, human; conditions: 48 hours, highest final concentration 100 µM, two replicate experiments
Procedure: Human HCT8 cells were grown in tissue culture flasks until a confluent monolayer was achieved. […] Cells were incubated with the drug for 48 hours. Promega CellTiter Aqueous One Solution Cell Proliferation Assay (MTS) (PRG3580) was commercially obtained and used to ascertain cell viability, with […] measured using a Biotek microplate reader. Cells incubated in 0.5% DMSO served as a positive growth control and comparator arm.

B. divergens = test system: B. divergens; design: method as in earlier work; conditions: ref 35 (Vanheer et al.); cited from earlier work
[4] = design: method as in PMID 22553374; conditions: oral, 28-day, once-daily dosing study in humans; cited from earlier work
[5] = cited from earlier work
[6] = Cytotoxicity on confluent monolayer HCT8 cells (Promega CellTiter Aqueous One MTS assay); assay type: cell-based; conditions: human HCT8 cells
P. falciparum = test system: P. falciparum; design: method as in PMID 26199860, PMID 33541085; conditions: depending on the strain tested; cited from earlier work
[7] = test system: normal cell lines (human mammary and renal epithelial cells, among others); design: method as in PMID 19344997; conditions: cited from earlier work
solid tumor cells = test system: solid tumor cells; design: method as in PMID 19344997; conditions: cited from earlier work
normal cells = test system: normal cells; design: method as in PMID 19344997; conditions: cited from earlier work
liquid tumor cell lines = test system: liquid tumor cell lines; design: method as in PMID 19344997; conditions: cited from earlier work
malignant cells = test system: malignant cells; design: method as in PMID 19344997; conditions: malignant cells treated; cited from earlier work
[8] = screened at 5 µM, four technical replicates
[9] = B. duncani in vitro, 48 hours of incubation, PI staining, read-out: EC50
[10] = Babesia duncani, Erythrocyte, 48 h, B. duncani in vitro, 48 hours of incubation, PI staining, read-out: EC50
[11] = Babesia duncani, Erythrocyte, 48 h, given in Fig 2 and Fig 3B, nine-point serial dilution, 48 hours, experiments repeated twice, read-out: EC50 (95% CI)
[12] = Babesia duncani, Erythrocyte, given in Fig 2 and Fig 3B, nine-point serial dilution, 48 hours, experiments repeated twice
[13] = Babesia duncani, Erythrocyte, Table 1, B. duncani, two replicate 9-point dilution experiments, combined data, read-out: EC50
[14] = Babesia duncani, Erythrocyte, B. duncani, read-out: In vitro IC90
[15] = Babesia duncani, Erythrocyte, conversion of B. duncani IC90, read-out: Free plasma concentration equivalent to IC90
[16] = 12 mg given orally (PO) thrice weekly

O=C1C(O)=C([C@H]2CC[C@H](c3ccc(Cl)cc3)CC2)C(=O)c2ccccc21 [Atovaquone]
EC50 (Babesia duncani [1]; Babesia duncani, SYBR green assay, ref 9 (Abraham et al.)): 500 nM
EC50 (Babesia duncani [1]; later Babesia duncani testing, same lab group): 72 nM
inhibition at 5 µM (Babesia duncani [2]; [8]): > 80%
EC50 (Babesia duncani [3]; [9]): 517 nM
EC50 (Babesia duncani [3]; [10]): 518 nM
EC50 (Babesia duncani [3]; [11]): 520 nM
EC90 (Babesia duncani [3]; [12]): 780 nM

CC[C@H]1OC(=O)[C@H](C)[C@@H](O[C@H]2C[C@@](C)(OC)[C@@H](O)[C@H](C)O2)[C@H](C)[C@@H](O[C@@H]2O[C@H](C)C[C@H](N(C)C)[C@H]2O)[C@](C)(O)C[C@@H](C)CN(C)[C@H](C)[C@@H](O)[C@]1(C)O [Azithromycin]
EC50 (Babesia duncani [3]; [10]): 12400 nM
EC50 (Babesia duncani [3]; [11]): 12000 nM
EC90 (Babesia duncani [3]; [12]): 28000 nM

O=C(/C=C/c1cccc(S(=O)(=O)Nc2ccccc2)c1)NO [Belinostat]
TC50 HCT8 (HCT8 cells): 90000 nM
EC50 (Babesia duncani [3]; [13]): 150 nM

CCC[C@@H]1C[C@@H](C(=O)N[C@@H]([C@H]2O[C@H](SC)[C@H](O)[C@@H](O)[C@H]2O)[C@H](C)Cl)N(C)C1 [Clindamycin]
EC50 (Babesia duncani [3]; [11]): > 50000 nM
Inhibition of B. duncani growth (in words) (Babesia duncani [3]; dose-response assay, 48 hours): appeared not to inhibit at all

O=C(/C=C/c1ccc(CN(CCO)CCc2c[nH]c3ccccc23)cc1)NO [Dacinostat]
TC50 HCT8 (HCT8 cells): 150000 nM
EC50 (B. divergens): 112 nM
EC50 (Babesia duncani [3]; [13]): 23 nM

Nc1ccccc1NC(=O)c1ccc(CNC(=O)OCc2cccnc2)cc1 [Entinostat]
TC50 HCT8 (HCT8 cells): 110000 nM
EC50 (Babesia duncani [3]; [13]): 23000 nM

CCN(CC)Cc1ccc2cc(COC(=O)Nc3ccc(C(=O)NO)cc3)ccc2c1 [Givinostat]
TC50 HCT8 (HCT8 cells): 43000 nM
EC50 (Babesia duncani [3]; [13]): 220 nM

Nc1ccccc1NC(=O)c1ccc(CNc2nccc(-c3cccnc3)n2)cc1 [Mocetinostat]
TC50 HCT8 (HCT8 cells): 56000 nM
EC50 (Babesia duncani [3]; [13]): 2500 nM

O=C(NO)c1cnc(N2C[C@@H]3[C@H](C2)[C@H]3NCc2ccc3cc(F)ccc3n2)nc1 [Nanatinostat]
Protocol defined maximum tolerated dose [4]: 80 mg
TC50 HCT8 (HCT8 cells): 44000 nM
Cmax ([5]; single 20 mg oral dose): 186 ng/mL
EC50 (Babesia duncani [3]; [9]): 23.8 nM
EC50 (Babesia duncani [3]; [10]): 23 nM
EC50 (Babesia duncani [3]; [13]): 24 nM
IC90 (Babesia duncani [3]; [14]): 64 nM
IC90 (Babesia duncani [3]; [15]): ~0.025 µg/mL
EC50 at 48 h [6]: 56200 nM

Cc1[nH]c2ccccc2c1CCNCc1ccc(/C=C/C(=O)NO)cc1 [Panobinostat]
inhibition at 5 µM (Babesia duncani [2]): > 80%
EC50 (P. falciparum): 10 to 30 nM
LD90 [7]: > 5 µM
TC50 HCT8 (HCT8 cells): 130000 nM
LD90 (solid tumor cells): less than 500 nM
EC50 (B. divergens): 27.2 nM
Caspase expression compared with control (normal cells): no increase
LD90 (liquid tumor cell lines): less than 100 nM
EC50 (Babesia duncani [3]; [10]): 8 nM
EC50 (Babesia duncani [3]; [13]): 8.4 nM
EC90 (Babesia duncani [3]; [12]): 37 nM
Increase in apoptotic signaling (malignant cells): 10- to 11 fold

CCCCc1nc2cc(/C=C/C(=O)NO)ccc2n1CCN(CC)CC [Pracinostat]
TC50 HCT8 (HCT8 cells): 450000 nM
EC50 (Babesia duncani [3]; [13]): 160 nM

C=C[C@H]1C[N@@]2CC[C@H]1C[C@H]2[C@H](O)c1ccnc2ccc(OC)cc12 [Quinine]
EC50 (Babesia duncani [3]; [10]): 17500 nM
EC50 (Babesia duncani [3]; [11]): 18000 nM
EC90 (Babesia duncani [3]; [12]): 33000 nM

Cn1cc(CNCC2CCN(c3ncc(C(=O)NO)cn3)CC2)c2ccccc21 [Quisinostat]
EC50 (P. falciparum): 5 to 7 nM
TC50 HCT8 (HCT8 cells): 170000 nM
EC50 (B. divergens): 4.6 nM
Area under the curve (AUC) [5, 16]: 18 ng*H/mL
Peak plasma concentration (Cmax) [5, 16]: 1.9 ng/mL
EC50 (Babesia duncani [3]; [13]): 4.5 nM
IC90 (Babesia duncani [3]; [14]): 10 nM
IC90 (Babesia duncani [3]; [15]): ~0.004 µg/mL

COc1cc(Cc2cnc(N)nc2N)cc(OC)c1OC [Trimethoprim]
inhibition at 5 µM (Babesia duncani [2]; [8]): > 80%
EC50 (Babesia duncani [3]; [10]): 2700 nM
EC90 (Babesia duncani [3]; [12]): 4500 nM

O=C(CCCCCCC(=O)Nc1ccccc1)NO [Vorinostat]
TC50 HCT8 (µM) (HCT8 cells): No toxicity

CC1(C)N=C(N)N=C(N)N1OCCCOc1cc(Cl)c(Cl)cc1Cl [WR99210]
EC50 (Babesia duncani [3]; [9]): 8.3 nM and ~8.3 nM
EC90 (Babesia duncani [3]; given in Fig 2 and Fig 3B, nine-point serial dilution, 48 hours, experiments repeated twice): 14 nM

c1ccc2c(c1)[I+]c1ccccc1-2 [diphenylene iodonium chloride, Diphenyleneiodonium chloride]
inhibition at 5 µM (Babesia duncani [2]; [8]): > 80%
EC50 (Babesia duncani [3]; [10]): 550 nM
EC90 (Babesia duncani [3]; [12]): 1600 nM
